Key:
Test in all cases: biochemical
Design in all cases: KINOMEscan competition binding, DNA-tagged kinase against immobilised ligand, qPCR read-out
Conditions in all cases: read-out: Percent Control
CDKL5 = CDKL5 (Homo sapiens, UniProt O76039)
SLK = SLK (Homo sapiens, UniProt Q9H2G2)
PTK2B = PTK2B (Homo sapiens, UniProt Q14289)
AURKA = AURKA (Homo sapiens, UniProt O14965)
FRK = FRK (Homo sapiens, UniProt P42685)
FLT4 = FLT4 (Homo sapiens, UniProt P35916)
PNCK = PNCK (Homo sapiens, UniProt Q6P2M8)
CAMK1 = CAMK1 (Homo sapiens, UniProt Q14012)
[1] = molecular target: T1, JAK1(JH2domain-pseudokinase) (Homo sapiens, UniProt P23458)
T1 construct: JH2 domain pseudokinase

LYN = LYN (Homo sapiens, UniProt P07948)
HUNK = HUNK (Homo sapiens, UniProt P57058)
FES = FES (Homo sapiens, UniProt P07332)
WNK3 = WNK3 (Homo sapiens, UniProt Q9BYP7)
SIK2 = SIK2 (Homo sapiens, UniProt Q9H0K1)
CABC1 = molecular target: T2, CABC1 (Homo sapiens, UniProt Q8NI60)
T2 construct: gene COQ8A

EPHB1 = EPHB1 (Homo sapiens, UniProt P54762)
CLK2 = CLK2 (Homo sapiens, UniProt P49760)
CSNK1E = CSNK1E (Homo sapiens, UniProt P49674)
EPHA6 = EPHA6 (Homo sapiens, UniProt Q9UF33)
MAP3K5 = MAP3K5 (Homo sapiens, UniProt Q99683)

EPHA6, sequence (Q9UF33 whole entry): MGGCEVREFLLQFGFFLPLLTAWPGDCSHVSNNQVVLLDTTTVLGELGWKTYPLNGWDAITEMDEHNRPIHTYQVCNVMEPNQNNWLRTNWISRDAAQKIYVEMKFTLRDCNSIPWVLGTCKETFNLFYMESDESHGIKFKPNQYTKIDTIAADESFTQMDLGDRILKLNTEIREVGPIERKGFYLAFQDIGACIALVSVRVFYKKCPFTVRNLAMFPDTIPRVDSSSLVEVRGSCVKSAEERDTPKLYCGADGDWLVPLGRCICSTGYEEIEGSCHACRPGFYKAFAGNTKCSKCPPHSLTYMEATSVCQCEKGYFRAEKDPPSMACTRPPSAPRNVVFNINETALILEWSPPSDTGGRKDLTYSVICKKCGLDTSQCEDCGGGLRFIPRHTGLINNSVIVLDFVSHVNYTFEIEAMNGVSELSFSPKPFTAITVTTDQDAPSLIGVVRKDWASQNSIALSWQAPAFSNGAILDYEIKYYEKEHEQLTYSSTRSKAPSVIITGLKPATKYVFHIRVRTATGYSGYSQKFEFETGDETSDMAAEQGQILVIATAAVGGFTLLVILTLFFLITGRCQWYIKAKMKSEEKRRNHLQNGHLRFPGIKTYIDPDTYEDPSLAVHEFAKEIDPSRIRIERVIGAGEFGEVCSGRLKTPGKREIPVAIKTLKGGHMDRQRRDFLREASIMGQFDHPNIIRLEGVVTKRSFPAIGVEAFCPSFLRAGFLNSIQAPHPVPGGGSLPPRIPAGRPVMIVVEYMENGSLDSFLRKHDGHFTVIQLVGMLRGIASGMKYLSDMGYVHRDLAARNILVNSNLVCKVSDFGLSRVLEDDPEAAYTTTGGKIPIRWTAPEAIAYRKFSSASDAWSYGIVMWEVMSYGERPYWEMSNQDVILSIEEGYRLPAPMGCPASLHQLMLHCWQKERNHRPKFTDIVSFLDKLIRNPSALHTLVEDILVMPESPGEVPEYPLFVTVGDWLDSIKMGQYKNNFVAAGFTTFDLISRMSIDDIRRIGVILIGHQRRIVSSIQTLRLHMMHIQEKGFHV
LYN, sequence (P07948 whole entry): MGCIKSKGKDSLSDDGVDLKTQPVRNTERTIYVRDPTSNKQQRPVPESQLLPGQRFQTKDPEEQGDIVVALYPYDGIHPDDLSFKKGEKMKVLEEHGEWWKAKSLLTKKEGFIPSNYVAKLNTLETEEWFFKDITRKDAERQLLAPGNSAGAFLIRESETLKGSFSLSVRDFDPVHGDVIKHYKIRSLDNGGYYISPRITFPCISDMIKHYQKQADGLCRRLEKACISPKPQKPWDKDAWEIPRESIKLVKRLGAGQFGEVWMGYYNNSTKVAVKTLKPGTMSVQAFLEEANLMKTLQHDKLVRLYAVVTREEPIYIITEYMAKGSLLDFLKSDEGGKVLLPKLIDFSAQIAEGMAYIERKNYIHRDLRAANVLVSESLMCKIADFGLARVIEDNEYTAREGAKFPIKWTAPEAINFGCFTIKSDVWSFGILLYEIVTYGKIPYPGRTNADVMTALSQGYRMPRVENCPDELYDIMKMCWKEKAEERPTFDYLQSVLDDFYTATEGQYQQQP
PTK2B, sequence (Q14289 whole entry): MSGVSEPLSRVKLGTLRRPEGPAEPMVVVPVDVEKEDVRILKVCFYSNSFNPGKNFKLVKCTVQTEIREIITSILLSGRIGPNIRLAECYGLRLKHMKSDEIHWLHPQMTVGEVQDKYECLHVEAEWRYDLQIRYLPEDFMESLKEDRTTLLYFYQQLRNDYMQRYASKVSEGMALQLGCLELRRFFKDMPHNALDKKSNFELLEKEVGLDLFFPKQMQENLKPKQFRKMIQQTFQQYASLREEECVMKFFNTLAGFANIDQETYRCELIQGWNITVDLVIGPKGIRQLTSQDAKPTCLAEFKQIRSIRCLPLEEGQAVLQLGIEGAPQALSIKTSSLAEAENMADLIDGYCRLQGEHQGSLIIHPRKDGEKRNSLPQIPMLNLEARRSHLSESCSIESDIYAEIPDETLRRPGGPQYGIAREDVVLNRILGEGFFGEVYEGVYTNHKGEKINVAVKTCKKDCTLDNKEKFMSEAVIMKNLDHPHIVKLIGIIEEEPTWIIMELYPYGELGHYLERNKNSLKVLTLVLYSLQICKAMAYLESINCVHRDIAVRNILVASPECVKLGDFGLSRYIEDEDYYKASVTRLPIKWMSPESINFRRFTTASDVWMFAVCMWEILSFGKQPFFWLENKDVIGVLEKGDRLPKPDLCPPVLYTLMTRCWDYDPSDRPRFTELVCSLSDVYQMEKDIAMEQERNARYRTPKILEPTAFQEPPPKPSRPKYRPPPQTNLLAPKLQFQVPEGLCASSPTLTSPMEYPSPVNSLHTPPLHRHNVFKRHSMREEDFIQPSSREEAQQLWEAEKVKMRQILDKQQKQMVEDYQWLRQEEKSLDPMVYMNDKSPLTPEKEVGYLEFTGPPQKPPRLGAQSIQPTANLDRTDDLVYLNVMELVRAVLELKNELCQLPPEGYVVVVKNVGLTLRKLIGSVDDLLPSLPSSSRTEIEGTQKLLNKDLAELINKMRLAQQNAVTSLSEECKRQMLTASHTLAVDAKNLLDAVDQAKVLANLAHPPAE
FRK, sequence (P42685 whole entry): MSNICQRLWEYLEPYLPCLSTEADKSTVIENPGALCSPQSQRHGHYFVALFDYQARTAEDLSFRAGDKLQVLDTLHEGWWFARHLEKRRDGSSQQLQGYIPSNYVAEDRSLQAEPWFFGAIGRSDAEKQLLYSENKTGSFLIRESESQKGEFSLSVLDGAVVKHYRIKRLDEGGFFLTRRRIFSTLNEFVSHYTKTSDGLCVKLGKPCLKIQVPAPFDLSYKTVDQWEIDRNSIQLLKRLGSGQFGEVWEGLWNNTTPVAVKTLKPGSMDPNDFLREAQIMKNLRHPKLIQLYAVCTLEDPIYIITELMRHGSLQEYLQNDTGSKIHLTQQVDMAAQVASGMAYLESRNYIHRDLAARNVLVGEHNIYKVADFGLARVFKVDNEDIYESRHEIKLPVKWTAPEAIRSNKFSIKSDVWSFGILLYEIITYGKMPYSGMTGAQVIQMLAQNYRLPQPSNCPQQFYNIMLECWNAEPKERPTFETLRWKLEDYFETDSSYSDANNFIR
SLK, sequence (Q9H2G2 whole entry): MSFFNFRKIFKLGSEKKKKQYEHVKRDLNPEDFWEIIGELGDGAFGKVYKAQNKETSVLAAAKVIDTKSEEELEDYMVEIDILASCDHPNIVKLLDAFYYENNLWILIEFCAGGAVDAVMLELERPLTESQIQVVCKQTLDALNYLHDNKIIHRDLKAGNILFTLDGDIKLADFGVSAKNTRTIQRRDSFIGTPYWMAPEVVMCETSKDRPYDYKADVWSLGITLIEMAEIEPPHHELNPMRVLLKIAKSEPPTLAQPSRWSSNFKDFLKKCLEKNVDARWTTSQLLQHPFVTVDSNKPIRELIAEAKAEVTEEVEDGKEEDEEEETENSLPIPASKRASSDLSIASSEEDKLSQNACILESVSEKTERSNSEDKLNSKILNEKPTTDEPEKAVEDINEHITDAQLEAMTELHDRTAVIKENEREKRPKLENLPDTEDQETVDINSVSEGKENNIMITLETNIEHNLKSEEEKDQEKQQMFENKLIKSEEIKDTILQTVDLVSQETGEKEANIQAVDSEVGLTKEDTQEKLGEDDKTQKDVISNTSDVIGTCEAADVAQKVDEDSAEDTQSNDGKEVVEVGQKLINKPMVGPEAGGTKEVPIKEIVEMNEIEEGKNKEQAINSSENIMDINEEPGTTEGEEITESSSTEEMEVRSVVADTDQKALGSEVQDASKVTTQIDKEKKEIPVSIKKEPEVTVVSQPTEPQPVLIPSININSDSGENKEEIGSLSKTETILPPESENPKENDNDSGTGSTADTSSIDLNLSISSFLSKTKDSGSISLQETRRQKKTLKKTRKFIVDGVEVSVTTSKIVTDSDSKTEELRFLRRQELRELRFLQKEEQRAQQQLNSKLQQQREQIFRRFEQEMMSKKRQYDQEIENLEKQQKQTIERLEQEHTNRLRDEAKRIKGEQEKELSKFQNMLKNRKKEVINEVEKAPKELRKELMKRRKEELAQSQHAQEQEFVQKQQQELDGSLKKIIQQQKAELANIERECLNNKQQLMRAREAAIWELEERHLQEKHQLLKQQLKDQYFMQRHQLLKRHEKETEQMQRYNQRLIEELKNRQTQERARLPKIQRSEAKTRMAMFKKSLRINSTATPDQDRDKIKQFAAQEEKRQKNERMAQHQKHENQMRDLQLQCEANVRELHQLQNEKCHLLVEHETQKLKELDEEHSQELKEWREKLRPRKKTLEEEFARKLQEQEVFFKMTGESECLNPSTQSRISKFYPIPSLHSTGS
CAMK1, sequence (Q14012 whole entry): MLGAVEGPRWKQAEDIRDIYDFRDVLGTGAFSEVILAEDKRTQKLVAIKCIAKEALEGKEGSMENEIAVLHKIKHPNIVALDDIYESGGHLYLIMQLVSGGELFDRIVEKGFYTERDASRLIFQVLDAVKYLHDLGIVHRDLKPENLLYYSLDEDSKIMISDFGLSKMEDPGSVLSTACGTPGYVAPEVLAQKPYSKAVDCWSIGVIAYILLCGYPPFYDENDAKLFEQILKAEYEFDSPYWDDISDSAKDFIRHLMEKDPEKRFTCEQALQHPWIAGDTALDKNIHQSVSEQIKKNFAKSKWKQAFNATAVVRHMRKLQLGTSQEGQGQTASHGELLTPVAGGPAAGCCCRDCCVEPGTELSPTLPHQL
AURKA, sequence (O14965 whole entry): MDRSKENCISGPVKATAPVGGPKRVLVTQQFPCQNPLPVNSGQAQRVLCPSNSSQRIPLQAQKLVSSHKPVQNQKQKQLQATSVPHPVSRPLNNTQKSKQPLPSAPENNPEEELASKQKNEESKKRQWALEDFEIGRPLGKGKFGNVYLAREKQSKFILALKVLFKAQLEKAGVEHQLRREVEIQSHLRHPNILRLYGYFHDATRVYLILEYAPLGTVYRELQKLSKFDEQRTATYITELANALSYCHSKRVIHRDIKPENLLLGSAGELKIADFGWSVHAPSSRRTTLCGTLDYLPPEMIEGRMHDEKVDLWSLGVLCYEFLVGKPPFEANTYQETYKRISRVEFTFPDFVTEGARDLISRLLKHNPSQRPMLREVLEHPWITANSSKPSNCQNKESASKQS

Oc1ccc(C2=Cc3ccc(O)cc3OC2)cc1 [compound 1, idronoxil]
remaining binding at 10 µM (CDKL5): 97%
remaining binding at 10 µM (SLK): 73%
remaining binding at 10 µM (PTK2B): 99%
remaining binding at 10 µM (AURKA): 92%
remaining binding at 10 µM (FRK): 78%
remaining binding at 10 µM (FLT4): 100%
remaining binding at 10 µM (PNCK): 74%
remaining binding at 10 µM (CAMK1): 96%
remaining binding at 10 µM [1]: 90%
remaining binding at 10 µM (LYN): 71%
remaining binding at 10 µM (HUNK): 69%
remaining binding at 10 µM (FES): 95%
remaining binding at 10 µM (WNK3): 80%
remaining binding at 10 µM (SIK2): 87%
remaining binding at 10 µM (CABC1): 78%
remaining binding at 10 µM (EPHB1): 84%
remaining binding at 10 µM (CLK2): 69%
remaining binding at 10 µM (CSNK1E): 74%
remaining binding at 10 µM (EPHA6): 99%
remaining binding at 10 µM (MAP3K5): 92%
